From BindingDB's records for patent US10689345 (Mission Therapeutics Limited, 2020)

Target: T1, Ubiquitin carboxyl-terminal hydrolase 30 (Homo sapiens, UniProt Q70CQ3)
T1 sequence (Q70CQ3 whole entry): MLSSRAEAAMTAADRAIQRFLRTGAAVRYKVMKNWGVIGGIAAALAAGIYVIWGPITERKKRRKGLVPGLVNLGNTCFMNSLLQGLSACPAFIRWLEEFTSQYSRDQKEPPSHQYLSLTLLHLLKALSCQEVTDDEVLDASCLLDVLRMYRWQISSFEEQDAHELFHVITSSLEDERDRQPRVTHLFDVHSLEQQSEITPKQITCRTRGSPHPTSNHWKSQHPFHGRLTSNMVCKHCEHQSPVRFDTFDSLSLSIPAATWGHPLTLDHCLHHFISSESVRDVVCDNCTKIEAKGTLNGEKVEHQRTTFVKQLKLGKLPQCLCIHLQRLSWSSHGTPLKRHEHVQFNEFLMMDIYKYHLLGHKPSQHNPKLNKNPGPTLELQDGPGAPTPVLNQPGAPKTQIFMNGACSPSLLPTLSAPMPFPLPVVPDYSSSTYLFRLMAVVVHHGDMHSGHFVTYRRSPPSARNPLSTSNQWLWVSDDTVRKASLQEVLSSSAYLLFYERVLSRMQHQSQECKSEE
Assay: Biochemical Fluorescence Intensity Kinetic Assay/Biochemical Fluorescence Intensity Assay
Description: Buffer was optimised for optimal temperature, pH, reducing agent, salts, time of incubation, and detergent. […] Reactions were incubated at room temperature and read every 2 min for 120 min. Readings were performed on a Pherastar Plus (BMG Labtech). […] A typical 8-point dilution series would be 100, 30, 10, 3, 1, 0.3, 0.1, 0.03 μM final. […] Either 1 μl of 50% DMSO or diluted compound was added to the plate. USP30 was diluted in reaction buffer (40 mM Tris, pH 7.5, 0.005% Tween 20, 0.5 mg/ml BSA, 5 mM beta-mercaptoethanol) to the equivalent of 0.001 μl/well and 10 μl of diluted USP30 was added to the compound. Enzyme and compound were incubated for 30 min at room temp. […] Reactions were read immediately after addition of substrate and following a 2 h incubation at room temperature.

For `CO[C@@H]1CN(C#N)C[C@H]1N(C)C(=O)c1ccc(-c2cnn(C)c2)cc1` [US10689345, Example 178], the IC50 was “in the range around 550 nM”.
